The text below walks through data of ChEMBL document CHEMBL1158292, “Progress in the discovery of biosynthetic anticancer drugs” (1996).

Common to all, as to type: functional
In test [1] the test system is P388. The test can be described thus: Antineoplastic activity against mouse P388 cells at 32 mg/kg relative to control.
The subject of another test is B16. The test can be described thus: In vivo antineoplastic activity against mouse B16 cells at 11 ug/kg.
In test [2] the test system is P388. The test can be described thus: Antineoplastic activity against mouse P388 cells at 100 mg/kg relative to control.
Another test has as its system OVCAR-3. Briefly: In vivo antineoplastic activity against human OVCAR-3 cells at 25 ug/kg.
Test [3] can be described thus: Growth inhibition of human ovarian cancer cells at 10^-10 M. Conditions: Cancer cell lines, read-out: GI.
Test [4] in a line: Growth inhibition of human lung cancer cells at 10^-10 M. Conditions: Cancer cell lines, read-out: GI.
The nature of test [5]: Growth inhibition of human renal cancer cells at 10^-10 M. Conditions: Cancer cell lines, read-out: GI.
A short description of test [6]: Growth inhibition of human breast cancer cells at 10^-10 M. The note with it: Cancer cell lines, read-out: GI.
Test [7] is described as follows: Growth inhibition of human colon cancer cells at 10^-10 M. The note with it: Cancer cell lines, read-out: GI.
The test system of test [8] is P388. Briefly: Antineoplastic activity against mouse P388 cells.
For test [9], the system named is P388. Briefly: Antineoplastic activity against mouse P388 cells at 12.5 mg/kg relative to control.
In test [10] the test system is P388. The test can be described thus: Antineoplastic activity against mouse P388 cells at 3 mg/kg relative to control.

SMILES strings stand for the structures.

The compound `C=C1C(=O)O[C@@H]2C(=O)[C@@H](C)[C@@H]3C=CC(=O)[C@@]3(C)[C@@H](OC(=O)/C(C)=C\C)[C@H]12` [MULTISTATIN] came in with a T/C in the test with P388 [1] of 131.

In the test with B16, `CC[C@H](C)[C@@H]([C@@H](CC(=O)N1CCC[C@H]1[C@H](OC)[C@@H](C)C(=O)N[C@@H](Cc1ccccc1)c1nccs1)OC)N(C)C(=O)[C@@H](NC(=O)[C@H](C(C)C)N(C)C)C(C)C` [DOLASTATIN-10] returned an Activity of 80%. In the case of `NCCS(=O)(=O)O` [TAURINE], the T/C in the test on P388 [2] is 123.

`C=C(Cl)/C=C/[C@H](O)CC(=C)C[C@H]1O[C@@H]2[C@H](C)[C@@H](OC(=O)C[C@@H]3C[C@@H](OC(C)=O)C[C@]4(C[C@](C)(O)C[C@@H](CC(=C)[C@H](C)[C@@H](OC(C)=O)[C@H](C)C(=O)C[C@H]5C[C@@H](OC)C[C@]6(C[C@H](O)C[C@@H](/C=C\CCC[C@@H]7O[C@@](O)(C[C@@H](O)[C@@H]7C)[C@H]2O)O6)O5)O4)O3)[C@@H]1O`: the Activity in the test with OVCAR-3 is reported as 70%. In addition, the inhibition of growth at 0.0001 µM in test [3], in test [4], in [5], in test [6] and in [7] was 50% in each case. In the case of `C[C@@H]1[C@]2(O[C@H]3C=C4[C@@H]5CC[C@H]6Cc7nc8c(nc7C[C@]6(C)[C@H]5C[C@@H](O)[C@]4(C)[C@]31O)C[C@@H]1CC[C@H]3C4=CC[C@@H]5[C@H](C)[C@@]6(OC[C@]45C(=O)C[C@@H]3[C@@]1(C)C8)OC(C)(C)C[C@H]6O)O[C@](C)(CO)C[C@H]2O` [CEPHALOSTATIN 1], the ED50 with P388 [8] is 1 ×10⁻⁹ ug/ml. Turning to `C=C1C(=O)O[C@@H]2[C@H](O)[C@@H](C)[C@@H]3C=CC(=O)[C@@]3(C)[C@@H](OC(=O)/C(C)=C\C)[C@H]12` [MULTIGILIN], in the test on P388 [9], the T/C is 164. In the test with P388 [10], `C=C1C(=O)O[C@@H]2C[C@@H](C)[C@@H]3C=CC(=O)[C@@]3(C)[C@@H](O)[C@H]12` [HELENALIN] yielded a T/C of 220.
